Test results from patent US12492403B2, “Aptamers and the use thereof in the treatment of cancer” (FUNDACIÓN PARA LA INVESTIGACIÓN BIOMÉDICA DEL HOSPITAL …, priority 2018, dated 2025).

Legend:
Assay type in all cases: cell-based, human
MDA-MB-231 cells [1] = assay: Transwell migration assay; conditions: MDA-MB-231, 400 nM, 24 hours migration
Description: (§1) FIGS. 13A, 13B and 13C. Effect of aptamer apMNKQ2 on the migration and invasion of breast cell lines. The three lines of study were seeded in 6-well plates at a density of 2.5×10^5 cells/well and transfected at 24 hours with apMNKQ2 at the established working concentrations. The cell lines were deprived of serum after 6 hours and collected and re-seeded (4×10^4 cells/well) after 24 hours in a transwell […], in order to perform migration and invasion assays, respectively. At 24 hours, the membranes of the transwell are stained with Hoechst and cells that have gone through the membranes are quantified using fluorescence microscopy (FIG. 13A). The boxes (FIGS. 13B and 13C) represent the mean±the maximum and minimum of 4-5 independent experiments (*p<0.05, **p<0.01, and ***p<0.001 with respect to the control aptamer AT).
(§2) Cell migration and invasion assays were performed using transwell (Corning, USA). The cells, previously transfected and incubated for 16 hours, were deprived of serum for 18 hours. After that time, they were collected, counted, and reseeded 4×10^4 cells in 300 μl of a serum-free complete medium inside the transwell (migration) or a transwell on which a layer of 100 μL of Matrigel (Corning, USA) (invasion) had previously been polymerized. […] Finally, two washes in PBS were performed, and 5 photographs of each membrane of the transwell were taken using a fluorescence microscope (Olympus IX70). The number of cells was analyzed using the imageJ program.
(§3) To analyze the effect of the aptamer on cell migration, experiments were carried out using transwells instead of the wound healing technique. […] At 18 hours, 40,000 cells are collected, counted, and seeded in small “baskets” in a serum-free medium, and these baskets are immersed in the well of the plate with complete serum, such that the serum acts as a chemoattractant and the cells migrate from the basket to the well, going through the membrane of the transwell. […]

MDA-MB-468 cells [2] = assay: Transwell migration assay; conditions: MDA-MB-468, 50 nM, 24 hours migration
Description: as §1, §2, §3

MCF7 cells [3] = assay: Transwell migration assay; conditions: MCF7, 150 nM, 24 hours migration
Description: as §1, §2, §3

[4] = system: MCF7, MDA-MB-231, and MDA-MB-468 cells; assay: MTT activity after direct addition of aptamer (no transfectant); conditions: direct addition without transfectant, highest tested concentration (0.5, 1, and 2 μM tested), 48 hours
Description: FIG. 17. MTT activity measurement in breast lines after the direct addition of apMNKQ2. MCF7, MDA-MB-231, and MDA-MB-468 cells were seeded in 96-well plates at a density of 10^4 cells/well, and apMNKQ2 was added at concentrations of 0.5, 1, and 2 μM at 24 hours. MTT assays were performed after 48 hours. The graphs represent the mean of 3 independent experiments, and are normalized with respect to the control of the untreated cells.
MTT activity. The cells were seeded in 96-well plates and after having been transfected, the culture medium was removed and 100 μL/well of MTT at 1 mg/ml in culture medium were added. The plates were incubated for 90 minutes in an incubator with a moisture-saturated environment at 37° C. and 5% CO2/[…] and 100 μL/well of a lysis solution (10% SDS and 10 mM HCl) were added for dissolving the crystals. After 48 hours, the reduction of MTT was determined by means of spectrophotometry in Infinite F200 (TECAN, Switzerland) at 540 nm.
The signal of the aptamer with lipofectamine (FIG. 16B) is more intense and less scattered than when the aptamer enters directly (FIG. 16A). The difference is more evident in the aggregates co-localized in the nucleus. […]

MDA-MB-231 cells [5] = assay: Cell viability by trypan blue exclusion; conditions: MDA-MB-231, 400 nM, 24 hours after transfection, vs control aptamer AT
Description: (§4) FIG. 9. Cell viability analysis by trypan blue exclusion. MCF7, MDA-MB-231, and MDA-MB-468 cells from different experiments were collected 24 hours after transfection, diluted 1:10 in trypan blue, and counted in a TC20 counter (BioRad, USA). The boxes represent the mean±the maximum and minimum of 12-14 independent experiments (**p<0.01, and ***p<0.001 with respect to the control aptamer AT). Trypan blue exclusion. Cells (live and dead) were collected in their corresponding medium, trypan blue (Sigma-Aldrich, USA) was added, and the cells were counted using the TC20 counter (BioRad, USA). Living cells are those which exclude the dye. The results were expressed as the number of living cells/mL. The cell lines were then transfected with the previously established concentrations and the number of living cells was determined 24 hours after transfection with […]2 or with the control aptamer AT by means of trypan blue exclusion.

MDA-MB-468 cells [6] = assay: Cell viability by trypan blue exclusion; conditions: MDA-MB-468, 50 nM, 24 hours after transfection, vs control aptamer AT
Description: as §4

MCF7 cells [7] = assay: Cell viability by trypan blue exclusion; conditions: MCF7, 150 nM, 24 hours after transfection, vs control aptamer AT
Description: as §4

5′TGGGGTGGGCGGGCGGGGGTGGGGGTGGT-3′ (DNA, backbone and methylation of C not given here; further chemistry not fully specified) [apMNKQ2]
inhibition of migration (transwell) (MDA-MB-231 cells [1]): in a statistically significant manner | inhibition of migration (transwell) (MDA-MB-468 cells [2]): capable of inhibiting migration | inhibition of migration (transwell) (MCF7 cells [3]): in a statistically significant manner | reduction of MTT activity [4]: 15% | total number of living cells (trypan blue exclusion) (MDA-MB-231 cells [5]): very slight drop | total number of living cells (trypan blue exclusion) (MDA-MB-468 cells [6]): significant drop | total number of living cells (trypan blue exclusion) (MCF7 cells [7]): significant drop
